Test results from ChEMBL document CHEMBL5543108, “Structure-based design and synthesis of BML284 derivatives: A novel class of colchicine-site noncovalent tubulin degradation agents” (Eur J Med Chem, 2024).
Calls of active or inactive are those of the source. The calls are words filed in the database; no cut-off is given here.

What was measured:
HeLa = experiment: Antiproliferative activity against human HeLa cells assessed as reduction in cell viability measured after 72 hrs; assay type: functional, cell-based
K562 = experiment: Antiproliferative activity against human K562 cells assessed as reduction in cell viability measured after 72 hrs; assay type: functional, cell-based; details: K562, 72 h
MCF7 = experiment: cells; details: Homo sapiens, MCF7, 72 h
Description: Antiproliferative activity against human MCF7 cells assessed as reduction in cell viability measured after 72 hrs

HCT-116 = experiment: cells; details: Homo sapiens, HCT-116, 72 h
Description: Antiproliferative activity against human HCT-116 cells assessed as reduction in cell viability measured after 72 hrs

MOLM-13 = experiment: Antiproliferative activity against human MOLM-13 cells assessed as reduction in cell viability measured after 72 hrs; assay type: functional, cell-based; details: MOLM-13, 72 h
Tubulin (Homo sapiens) [1] = biological target: T1, Tubulin (Homo sapiens) (UniProt P68371+Q9H4B7+P0DPH7+P68366+Q13509+Q71U36+P04350+Q3ZCM7+P07437+P68363+Q9BQE3+Q6PEY2+Q13885+Q9BVA1+Q9BUF5); experiment: Induction of tubulin degradation in human HeLa cells at 50 uM measured after 24 hrs by immunoblot analysis; assay type: cell-based
Tubulin (Homo sapiens) [2] = biological target: T1, Tubulin (Homo sapiens); experiment: Induction of tubulin degradation in human HeLa cells measured after 24 hrs by immunoblot analysis; assay type: cell-based; details: dose <= 50.0 µM

| Compound | IC50 (HeLa) | IC50 (K562) | IC50 (MCF7) | IC50 (HCT-116) | IC50 (MOLM-13) | Activity (Tubulin (Homo sapiens) [1]) | Activity (Tubulin (Homo sapiens) [2]) |
| --- | --- | --- | --- | --- | --- | --- | --- |
| Cc1ccc(-c2cc(NCc3ccc4c(c3)OCO4)nc(N)n2)cc1 | 170 nM | 150 nM | 450 nM | 420 nM | 200 nM | – | – |
| CCCN(Cc1ccc2c(c1)OCO2)c1cc(-c2cccc(OC)c2)nc(N)n1 | 80 nM | 80 nM | 110 nM | 110 nM | 80 nM | – | – |
| COc1cccc(-c2cc(N3CCc4cc(OC)c(OC)cc4C3)nc(N)n2)c1 | 230 nM | 330 nM | 220 nM | 210 nM | 170 nM | – | – |
| COc1cccc(-c2cc(NCc3ccc(OC)c(OC)c3)nc(N)n2)c1 | 60 nM | 70 nM | 40 nM | 30 nM | 30 nM | – | – |
| COc1cccc(-c2cc(NCc3ccc(OC(F)(F)F)cc3)nc(N)n2)c1 | 430 nM | 260 nM | 590 nM | 260 nM | 280 nM | – | – |
| COc1cccc(-c2cc(N)nc(NCc3ccc4c(c3)OCO4)c2)c1 | 48600 nM | 19300 nM | 26500 nM | 37500 nM | 20200 nM | inactive | inactive |
| Nc1nc(NCc2ccc3c(c2)OCO3)cc(-c2ccoc2)n1 | 910 nM | 280 nM | > 2000 nM | 1010 nM | 560 nM | – | – |
| COc1cccc(-c2cc(NCc3ccc4c(c3)OCO4)ncn2)c1 | 30800 nM | 8630 nM | 22800 nM | 15800 nM | 12500 nM | Active | Dose-Dependent Effect |
| Nc1nc(NCc2ccc3c(c2)OCO3)cc(-c2ccc3c(c2)OCCO3)n1 | 520 nM | 170 nM | 650 nM | 710 nM | 240 nM | – | – |
| Nc1nc(NCc2ccc3c(c2)OCO3)cc(-c2cccc(OCc3ccccc3)c2)n1 | > 2000 nM | 740 nM | > 2000 nM | 1050 nM | 1010 nM | – | – |
| CC(C)c1cccc(-c2cc(NCc3ccc4c(c3)OCO4)nc(N)n2)c1 | > 2000 nM | > 2000 nM | > 2000 nM | > 2000 nM | > 2000 nM | – | – |
| COc1cccc(-c2cc(NCc3cc(OC)c(OC)c(OC)c3)nc(N)n2)c1 | 330 nM | 280 nM | 280 nM | 160 nM | 110 nM | – | – |
| CC(C)c1ccc(-c2cc(NCc3ccc4c(c3)OCO4)nc(N)n2)cc1 | > 2000 nM | > 2000 nM | > 2000 nM | > 2000 nM | > 2000 nM | – | – |
| COc1ccc(CNc2cc(-c3cccc(OC)c3)nc(N)n2)cc1 | 120 nM | 130 nM | 620 nM | 520 nM | 120 nM | – | – |
| Nc1nc(NCc2ccc3c(c2)OCO3)cc(-c2ccc(Oc3ccccc3)cc2)n1 | > 2000 nM | > 2000 nM | > 2000 nM | > 2000 nM | > 2000 nM | – | – |
| C=CCN(Cc1ccc2c(c1)OCO2)c1cc(-c2cccc(OC)c2)nc(N)n1 | 110 nM | 60 nM | 60 nM | 97 nM | 60 nM | – | – |
| Nc1nc(NCc2ccc3c(c2)OCO3)cc(-c2cccc3ccccc23)n1 | 500 nM | 250 nM | 960 nM | 770 nM | 220 nM | – | – |
| CC(C)(C)c1ccc(-c2cc(NCc3ccc4c(c3)OCO4)nc(N)n2)cc1 | > 2000 nM | > 2000 nM | > 2000 nM | > 2000 nM | > 2000 nM | – | – |
| Nc1nc(NCc2ccc3c(c2)OCO3)cc(-c2ccc(F)cc2)n1 | > 2000 nM | > 2000 nM | > 2000 nM | > 2000 nM | > 2000 nM | – | – |
| Nc1nc(NCc2ccc3c(c2)OCO3)cc(-c2ccc3c(c2)CCN3)n1 | 120 nM | 20 nM | 640 nM | 300 nM | 90 nM | – | – |
| COc1cc(-c2cc(NCc3ccc4c(c3)OCO4)nc(N)n2)cc(OC)c1OC | > 2000 nM | > 2000 nM | > 2000 nM | > 2000 nM | > 2000 nM | – | – |
| COc1cccc(-c2cc(NCc3ccc4ccccc4c3)nc(N)n2)c1 | 290 nM | 320 nM | 290 nM | 130 nM | 130 nM | – | – |
| COc1cccc(-c2cc(NCc3ccc4c(c3)OCO4)nc(N)n2)c1 | 90 nM | 100 nM | 690 nM | 520 nM | 190 nM | – | – |
